From ChEMBL document CHEMBL3137356, “MMV Box Cryptosporidium parvum screening set”

What follows are compounds tested on Cryptosporidium parvum (assay: MMV: Cryptosporidium parvum oocysts (Iowa Strain) were prepared for use by treatment with 10 mM HCl (37 degrees C, 10 min) followed by 2 mM sodium taurocholate in phosphate-buffered saline (PBS) with Ca2+ and Mg2+ (16 degrees C, 10 min) in order to stimulate excystation. The high-throughput screen was carried out by inoculating >90% confluent human ileocecal adenocarcinoma (HCT-8) cells (ATCC) with ~5.5 x 10^3 primed oocysts per well. Experimental compounds or DMSO (vehicle) were added three hours after infection, and cells were incubated for 48 hours.).
Format: functional

Compound | Inhibition
CCOc1cc(CNC(C)C(O)c2ccccc2)cc(Cl)c1OCC (stereo not given) | 29.95%
OC(CNCC1CCCO1)Cn1c2ccc(Cl)cc2c2cc(Cl)ccc21 (stereo not given) | -33.95%
COc1ccc2nc(C)cc(Nc3ccccc3O)c2c1 | -4.901%
CCn1nc(-c2ccc(C(=O)OC)cc2)nc2c(=O)n(C)c(=O)nc1-2 | -16.23%
Cc1cc(NC(=O)c2cccc(C(F)(F)F)c2)n(-c2nc(-c3ccc4c(c3)OCO4)cs2)n1 | -22.88%
CC1(c2ccccc2)Nc2ccccc2-c2nc3ccccc3n21 (stereo not given) | 30.85%
COc1cccc(C2(C)Nc3ccccc3-c3nc4ccccc4n32)c1 (stereo not given) | -28.25%
CC(C)CNC(=O)c1c(N)n(CCc2ccccc2F)c2nc3ccccc3nc12 | -31.92%
CC(C)(C)CC(C)(C)NCC(O)COc1ccc(Cl)cc1Cl (stereo not given) | 15.77%
Cc1cccc(-n2ncc3c(O)nc(-n4nc(C)cc4NC(=O)c4cc5ccccc5o4)nc32)c1 | 82.48%
O=C(Nc1ccccc1O)c1ccc(Oc2cccc(C(=O)Nc3ccccc3O)c2)cc1 | -14.93%
O=C(Nc1ccc(Br)cc1)Nc1cccc(Cl)c1 | -51.26%
Oc1ccccc1CN1CCC2(CCCN(Cc3ccccc3F)C2)C1 (stereo not given) | -2.723%
Cl.N=c1n(CCN2CCCCC2)c2ccccc2n1CC(O)c1cccc(Br)c1 (stereo not given) | 3.872%
COc1cccc(O)c1CN1CCC2(CCCN(Cc3ccc(F)cc3)C2)C1 (stereo not given) | 46%
COc1cccc(Nc2nc(NCCO)c3ccccc3n2)c1.Cl | 65.39%
Cc1ccc(-c2cc(C(=O)Nc3ccc(S(=O)(=O)N4CCCCC4)cc3)[nH]n2)c(O)c1 | -59.17%
O=C(NCc1ccco1)C1CCN(S(=O)(=O)c2ccc(Cl)cc2)CC1 | -53.31%
COc1ccc(C(=O)Nc2ccc3nc(N4CCCCC4)cc(C)c3c2)cc1OC | 6.852%
COCCNCC(O)Cn1c2ccc(Cl)cc2c2cc(Cl)ccc21 (stereo not given) | -20.11%
COc1ccc(N2CCN(C(CNC(=O)C3CCCCC3)c3ccc4c(c3)OCO4)CC2)cc1 (stereo not given) | -25.24%
FC(F)(F)c1ccc(Nc2nnnc3ccccc23)cc1 | -4.73%
O=C(NC1CCN(Cc2ccccc2)CC1)c1cc(-c2ccncc2)nc2ccc(Cl)cc12 | 13.62%
CCC(O)c1ccc(Br)cc1NC(=O)c1cccc(Cl)c1 (stereo not given) | 15.79%
COc1cc2cc(C(=O)Nc3ccccc3)c(N)nc2cc1OC | -19.13%
COc1cccc(NC(=O)Cn2c(C)c(C#N)c3ccccc32)c1 | 14.16%
Cn1c(=O)c2cc(C(=O)NCCCN3CCCCCC3)sc2c2ccccc21 | -13.68%

Compound | Inhibition
Cc1[nH]c(-c2ccc(F)cc2)cc1C(=O)NC1CCN(Cc2ccccc2)CC1 | -23.5%
COc1ccc(CCN2CCC(CN(C)Cc3cnn(-c4ccccc4)c3)CC2)cc1 | -0.7856%
O=C(NC(c1ccccc1)c1ccc2cccnc2c1O)c1ccccc1 (stereo not given) | 59.29%
O=C(O)C(=O)O.Oc1ccccc1CN1CCN(C(c2ccccc2)c2ccccc2)CC1 | -3.109%
O=C(NC1CCCC1)c1ccc(N2CCC(NCc3cccc(C(F)(F)F)c3)CC2)cc1 | -29.41%
CCOc1cc(Br)c(C(C)NC(=O)c2cccc(OC)c2)cc1OCC (stereo not given) | -25.9%
CC(C)=CCN1CCC(C(=O)Nc2ccc(-c3nc4ccccc4[nH]3)cc2)CC1 | -41.53%
CCN(CC)CCn1c(=N)n(CC(O)c2ccc(Cl)c(Cl)c2)c2ccccc21.Cl (stereo not given) | 14.91%
CCOc1cc(Cl)c(C(C)NC(=O)c2cccc(OC)c2)cc1OCC (stereo not given) | -11.62%
FC(F)(F)c1cccc(Nc2nc(-c3ccccc3)nc3ncccc23)c1 | -10.43%
CCN1CCN(c2cc(C)c3cc(NC(=O)c4ccc(OC)c(OC)c4)ccc3n2)CC1 | -21.17%
CC(=O)Nc1nnc(SCc2c(C)cc(C(C)(C)C)cc2C)s1 | -2.709%
Cc1ccc(Cl)cc1N1CCN(CCCNC(=O)C2CCN(c3nc4ccccc4[nH]3)CC2)CC1 | -53.53%
COc1ccc(CNC2CCN(c3ccc(NC(=O)c4cccc(Cl)c4)cc3)CC2)cc1OC | -38.21%
Cc1ccc(CSCc2ccc(C(=O)NC3CC3)o2)cc1 | -11.49%
CC(NCc1ccccc1)c1cc(Cl)ccc1O (stereo not given) | -51.25%
CN1CCN(c2c3c(c(C#N)c4nc5ccccc5n24)CCC3)CC1 | -1.609%
Cc1cc(Nc2cccc(F)c2)nc(NCc2ccccc2)n1 | -34.09%
CCOc1ccc(C2N(C)c3ccccc3N2C)cc1 | -19.63%
COCCn1c(C)nc2ccccc2c1=O | -17.93%
O=C(Nc1cccc(-c2nc3ccccc3[nH]2)c1)c1cccc(NC(=O)c2ccco2)c1 | 23.53%
COc1ccc(C(=O)Nc2ccc(Cl)cc2C(=O)Nc2ccncc2)cc1 | -23.38%
O=C(NC1CCN(Cc2ccccc2)CC1)c1cc(-c2cccnc2)nc2ccc(Cl)cc12 | -40.68%
O=C(Nc1ccc(CN2CCOCC2)cc1)c1ccc(-c2ccc(Br)cc2)o1 | 0.1242%
CCN(Cc1ccccc1)C1CCN(Cc2cc(Br)ccc2O)CC1.O=C(O)C(=O)O | -6.655%
CC(=O)NCCc1nc2ccccc2n1Cc1ccc(C(C)C)cc1 | 0.2505%
COc1nc(Nc2ccc(C(C)C)cc2)nc(OC)n1 | 4.363%

Compound | Inhibition
CCN(CC)CCNc1ncnc2c1[nH]c1ccc(Br)cc12 | -47.02%
CCOc1cccc(C(=O)Nc2ccc(-c3nc4ccccc4[nH]3)cc2)c1 | -2.618%
CN(C)c1ccc(-c2nc3cc(N)ccc3[nH]2)cc1 | -41.71%
Cl.Clc1cc(Br)ccc1-c1ccc(CNCC2CCNCC2)o1 | 26.78%
O=C(CSc1ccc2nnc(-c3cccc(F)c3)n2n1)Nc1ccc2c(c1)OCO2 | -19.97%
Cc1c(C)n(Cc2ccc(F)cc2)c2ccc(C(=O)NCc3ccco3)cc12 | -17.08%
CCN(CC)c1ccc(NC(=O)c2cccs2)cc1 | -55.73%
CCCC(c1nnnn1C1CCCCC1)N1CCN(C(=O)c2ccco2)CC1.Cl (stereo not given) | -55.52%
COc1ccc(-c2nonc2NC(=O)c2cccc(Cl)c2)cc1OC | 23.52%
Cc1cc(NC(=O)c2ccc(-c3ccccc3)cc2)no1 | 13.55%
CC(C)(C)C(=O)Nc1ccc(C(=O)Nc2cccc(-c3nc4ccccc4[nH]3)c2)cc1 | 18.85%
COc1ccc(-c2nonc2NC(=O)c2cccc(C)c2)cc1OC | 4.698%
COc1cccc(-c2nn(C)c3sc(C(=O)NCCN4CCN(c5ccccc5F)CC4)cc23)c1 | 60.49%
O=C(Nc1ccc(N2CCN(Cc3ccccc3)CC2)cc1)c1cccs1.O=C(O)C(F)(F)F | -70.26%
Cc1ccc(CN2CCC(C(=O)Nc3ccc(-c4cc5ccccc5[nH]4)cc3)CC2)o1 | 45.39%
O=C(Nc1ccc(N2CCCCC2)c(Cl)c1)c1ccc(Br)o1 | -27.15%
Cc1cc(C)c2nc(N3CCC(C(=O)NCCCN4CCC(N5CCCCC5)CC4)CC3)sc2c1 | -56.98%
O=C(Nc1ccsc1C(=O)NC1CCCCC1)c1ccc(F)cc1 | -24.81%
O=C1CC(O)(C(F)(F)C(F)(F)F)Oc2ccccc21 (stereo not given) | 26.51%
COc1cc(SC)ccc1C(=O)N1CCCC(C)C1 (stereo not given) | -12.18%
O=C(Nc1cccc(C(F)(F)F)c1)c1cc(Cl)ccc1O | 41.48%
CC(C)(C)c1ccc(C(=O)Nc2nc3ccccc3s2)cc1 | 63.38%
CCOc1cccc2sc(N(Cc3cccnc3)C(=O)C3CCCCC3)nc12 | -38.34%
CC1CC(C)CN(C(=O)c2ccc(Cl)cc2Cl)C1 (stereo not given) | -45.44%
COc1ccccc1CNC(=O)C1c2ccccc2C(=O)N(CC(C)C)C1c1cccs1 (stereo not given) | 58.94%
OC(CNC1CCCC1)Cn1c2ccccc2c2ccccc21 (stereo not given) | -40.56%
COc1ccc(C2N(C)c3ccccc3N2C)cc1 | -12.31%

Compound | Inhibition
CCN(CC)c1cc(C)c2cc(NC(=O)c3cccc(OC)c3)ccc2n1 | -27.53%
Cc1ccc(NC(=O)Nc2cccc(Cl)c2)cc1F | -0.4391%
CC(C)OCc1cc(CN2CCN(c3cccc(Cl)c3)CC2)c(O)c2ncccc12 | 54.97%
O=C(Nc1ccc(F)c(Cl)c1)Nc1ccc(Cl)c(Cl)c1 | 36.98%
CCOc1ccc(-c2nc(NC(=O)c3cccc(S(C)(=O)=O)c3)sc2C)cc1 | 26.25%
O=c1nc(C=Cc2ccc(Cl)cc2)oc2ccccc12 | 84.37%
O=C(NCc1ccco1)C1CCN(S(=O)(=O)c2ccc(Br)cc2)CC1 | 29.65%
Clc1ccc2[nH]c3c(NCCCN4CCOCC4)ncnc3c2c1 | 37.37%
COc1ccc(Nc2nc(NCc3ccccc3)c3ccccc3n2)cc1 | 49.98%
COc1cc2c(cc1OC)C1=NNC(=O)C1=NC(C)(C)C2 | -25.43%
COc1ccccc1N1CCN(C(CNS(=O)(=O)c2ccc(Cl)cc2)c2cccnc2)CC1 (stereo not given) | 38.78%
Oc1c2c(nc3cc(-c4ccccc4)nn13)CCCC2 | 37.02%
CCCc1c(C)nc2ccccc2c1O | -14.82%
CCOc1c(Cl)cc(CNC(C)C(O)c2ccccc2)cc1OC (stereo not given) | -2.917%
CCOc1ccc(CCNC(=O)c2cccs2)cc1OCC | 10.2%
CCCN(CCC)CCCNC(=O)c1cc2c(-c3ccc(OC)c(OC)c3)nn(C)c2s1 | 32.69%
Cc1cc(N2CCN(C3CCCC3)CC2)n2c(nc3ccccc32)c1C#N | -41.28%
CN1c2ccccc2N(C)C1c1ccc2c(c1)OCO2 | -58.41%
CCCCOc1ccc(C(=O)Nc2cc(C)on2)cc1 | -8.82%
O=C(NCC1Cc2cccc(-c3ccncc3)c2O1)c1csc2c1CCCC2 (stereo not given) | 13.55%
CCc1ccc(Nc2cc(C)nc3nc(C)nn23)cc1 | -3.889%
Br.CCN(CC)S(=O)(=O)c1ccc(-c2csc(Nc3ccc(C)c(C)c3)n2)cc1 | -28.35%
C=C(C)CCC(C)N1CCC(N2CCC(C(=O)NCCc3ccccc3)CC2)CC1 (stereo not given) | -27.27%
C=CCc1c(C)nc2ccccc2c1O | -10.8%
